The assay addresses Tyrosine-protein kinase BTK (Homo sapiens, UniProt Q06187). The assay can be described thus: Inhibition of BTK (unknown origin) using peptide substrate after 1 hr by HTRF assay.

Where only a bound is given, the exact number is not on record here.

In general, IC50 refers to the concentration that inhibits the measured activity by half. The low end stands for inhibition by little substance, the high end for a need for much substance.

Chain of Tyrosine-protein kinase BTK (Q06187 whole entry): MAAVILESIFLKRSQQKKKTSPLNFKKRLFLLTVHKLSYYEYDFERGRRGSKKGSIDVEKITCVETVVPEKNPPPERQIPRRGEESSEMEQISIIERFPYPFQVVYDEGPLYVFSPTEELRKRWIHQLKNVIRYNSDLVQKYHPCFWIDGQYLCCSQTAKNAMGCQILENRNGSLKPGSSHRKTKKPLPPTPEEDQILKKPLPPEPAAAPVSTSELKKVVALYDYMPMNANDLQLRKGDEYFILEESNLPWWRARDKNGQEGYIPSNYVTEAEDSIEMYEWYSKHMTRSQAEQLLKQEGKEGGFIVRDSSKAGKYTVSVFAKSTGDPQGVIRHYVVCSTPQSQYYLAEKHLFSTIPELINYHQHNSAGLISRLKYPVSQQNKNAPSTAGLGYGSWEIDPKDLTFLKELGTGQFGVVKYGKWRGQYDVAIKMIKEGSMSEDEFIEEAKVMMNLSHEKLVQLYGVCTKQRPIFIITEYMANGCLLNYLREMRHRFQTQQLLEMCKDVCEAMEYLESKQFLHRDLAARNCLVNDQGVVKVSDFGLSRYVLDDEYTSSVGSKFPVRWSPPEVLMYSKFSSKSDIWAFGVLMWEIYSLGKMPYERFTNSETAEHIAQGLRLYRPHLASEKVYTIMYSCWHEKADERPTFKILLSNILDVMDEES

Compound `C=CC(=O)N1CC[C@@H](n2nc(-c3ccc(Oc4cccc(OC)c4C)cc3)c3cnccc32)C1` displayed a 50% inhibitory concentration (IC50) of 0.01 to 0.1 µM.

In turn, `C=CC(=O)N1CCC[C@H](n2nc3ccncc3c2-c2ccc(Oc3cccc(Cl)c3Cl)cc2)C1` registered an IC50 not above 0.01 µM.

In turn, `C=CC(=O)N1CC[C@@H](n2nc(-c3ccc(Oc4cccc(OC)c4Cl)cc3)c3cnccc32)C1` gave a 50% inhibitory concentration (IC50) not above 0.01 µM.

`CC#CC(=O)N1CCC[C@@H](n2nc(-c3ccc(C(=O)Nc4ccccn4)cc3)c3cnccc32)C1` registered a half-maximal inhibitory concentration (IC50) of 0.1 to 1 µM.

For `COc1cccc(Oc2ccc(-c3nn([C@@H]4CCCN(C(=O)OC(C)(C)C)C4)c4c(OC)cncc34)cc2)c1F`, the IC50 is not above 0.01 µM.

As for `C=CC(=O)N1CC[C@@H](n2nc(-c3ccc(Sc4cccc(F)c4)cc3)c3cnccc32)C1`, the IC50 is not above 0.01 µM.

As to `C=CC(=O)N1CC[C@H](n2nc3ccncc3c2-c2ccc(Oc3cccc(Cl)c3Cl)cc2)C1`, the IC50 is not above 0.01 µM.

As to `C=CC(=O)N1CCC[C@@H](n2nc(-c3ccc(Oc4cccc(Cl)c4)cc3)c3cnccc32)C1`, the IC50 was in the range of 0.01 to 0.1 µM.

The compound `C=CC(=O)N1CCC[C@@H](n2nc(-c3ccc(Oc4cccc(OC)c4F)cc3)c3cncc(OC)c32)C1` displayed a half-inhibitory concentration (IC50) of 0.1 to 1 µM.

On to `O=C(Nc1ccc(-c2nn(C3CCC(C(=O)O)CC3)c3ccncc23)cc1)c1ccccc1` (configuration not stated), for which the concentration for half-maximal inhibition (IC50) is not below 10 µM.

Turning to `C=CC(=O)N1CC[C@@H](n2nc(-c3ccc(Oc4cccc(OC)c4F)cc3)c3c2CCN(C(C)=O)C3)C1`, the IC50 fell in the range of 1 to 10 µM.

Compound `C=CC(=O)N1CCC[C@@H](n2nc(-c3ccc(Oc4ccccc4)cc3)c3cnccc32)C1` registered a half-maximal inhibitory concentration (IC50) not above 0.01 µM.

Source of the values: ChEMBL document CHEMBL4190358, “Bruton's Tyrosine Kinase Inhibitors for the Treatment of Autoimmune Diseases and Cancers” (ACS Med Chem Lett, 2017).
